According to patent US10718782B2, “Method of evaluating cellulite and method of evaluating cellulite-effective drug using fibulin-3 and/or sarcoglycan gamma as an indicator” (Shiseido Company, Ltd., priority 2012, dated 2020):

Assays:
[1] = tested on: fibulin-3; experiment: Addition of known cellulite-improving drugs to cultured fibroblasts, fibulin-3 expression by quantitative PCR; format: cell-based; details: fibroblasts derived from human skin tissue, serum-free medium, 24 hours; conjugated linoleic acid 0.001% and 0.01% v/v, nicotinamide 0.0005% and 0.005% v/v; mRNA vs control
Method: (§1) Quantitative RT-PCR was carried out by using synthesized cDNA as the template, and further by using a reaction reagent LightCycler (registered trademark) FastStart DNA MasterPlus SYBR Green (Roche), and a reaction instrument LightCycler (Roche) or AB 7900 HT Fast Real-Time PCR System (Applied Biosystems). The condition for composition was as described in Roche's protocol. The annealing temperature of the primers was set at 60° C., and quantitated by using ΔΔCt method.
(§2) Fibroblasts derived from human skin tissue were plated in a 24-well type I collagen-coated dish (IWAKI), and cultured to 70-80% confluence in a 10% bovine fetal serum-supplemented DMEM (Gibco/Invitrogen) under the condition of 37° C. and 5% CO2. After replacing with a serum-free medium for half a day, it was further replaced with a serum-free medium with varying concentrations of conjugated linoleic acid (Sigma) (0.001% v/v, 0.01% v/v) or nicotinamide (Sigma) (0.0005% v/v, 0.005% v/v). 24 hours later, RNA was recovered by using RNeasy mini kit (Qiagen) according to Qiagen's protocol. As a control, RNA prepared and recovered by substituting the medium with an intact serum-free medium, and recovering RNA 24 hours later was used. The concentration of the recovered RNA was determined using a nucleic acid quantitation instrument Nanodrop (Thermo Scientific). […]

[2] = tested on: sarcoglycan gamma; experiment: Addition of known cellulite-improving drugs to cultured fibroblasts, sarcoglycan gamma expression by quantitative PCR; format: cell-based; details: fibroblasts derived from human skin tissue, serum-free medium, 24 hours; conjugated linoleic acid 0.001% and 0.01% v/v, nicotinamide 0.0005% and 0.005% v/v; mRNA vs control
Method: as §1, §2

[3] = tested on: cellulite; details: applied on the affected cellulite site; Patent Literature 1 and 2, Non-patent Literature 8; cited from earlier work

Molecule | expression of fibulin-3 [1] | expression of sarcoglycan gamma [2] | alleviation of cellulite [3]
NC(=O)c1cccnc1 [nicotinamide] | enhanced the expression of fibulin-3 and sarcoglycan in a dose-dependent manner | enhanced the expression of fibulin-3 and sarcoglycan in a dose-dependent manner | alleviate cellulite
sulfocarbiose | – | – | alleviate cellulite
conjugated linoleic acid | enhanced the expression of fibulin-3 and sarcoglycan in a dose-dependent manner | enhanced the expression of fibulin-3 and sarcoglycan in a dose-dependent manner | alleviate cellulite
